1 compound from patent US12344620B2, “BRD4 inhibitor compound in solid form and preparation method therefor and use thereof” (CSPC ZHONGQI PHARMACEUTICAL TECHNOLOGY (SHIJIAZHUANG) CO., …, priority 2019, dated 2025) can be followed below.

Data set [1] can be described thus: Solid stability test of the crystalline form A. It is filed as physicochemical.
A short description of data set [2]: Hygroscopicity study by dynamic vapor sorption (DVS). The conditions noted are these: 25° C. and 80% RH. The format is physicochemical. The protocol:
• Instrument model: SMS DVS advantage dynamic vapor sorption analyzer • Testing conditions: the sample (10-20 mg) was placed in DVS sample trays for testing. Detailed DVS Parameters: • Temperature: 25° C. • Balancing: dm/dt=0.01%/min (shortest: 10 min, longest: 180 min) • Drying: drying for 120 min at 0% RH • RH (%) testing step: 10% • RH (%) testing step range: 0%-90%-0%
The evaluation of hygroscopicity was classified as follows:
• 10-15 mg of the crystalline form A of the compound of formula (I) was placed on a DVS sample tray for testing.

Take `Cc1sc2c(c1C)C(c1ccc(Cl)cc1)=N[C@@H](CC(=O)Nc1ccc3c(c1)COC3=O)c1nnc(C)n1-2`: in data set [1] (0 day (initial)), the Appearance entry was “White”, the Content was found to be 98.7%, the “Crystalline form (XRPD)” value is listed as “form A” and the Total impurity came out at 0.17%. In addition, in data set [1] (25° C./60% RH, sealed, 90 days), the Appearance entry is on record as “White”, the Content worked out at 99.4%, the “Crystalline form (XRPD)” value is recorded as “form A” and the Total impurity was found to be 0.12%. In addition, in data set [1] (40° C./75% RH, sealed, 90 days), the Appearance result was “White”, the Content is reported as 99.2%, the “Crystalline form (XRPD)” value is given as “form A” and the Total impurity is 0.19%. Further, the “Solid stability (conclusion)” value in data set [1] (accelerated and prolonged conditions, 90 days) was “good stability”. In data set [2], the Moisture absorption classification result is given as “slightly hygroscopic” and the “ΔW, increase in weight by moisture sorption” value worked out at 1.789%.
